Results: PubChem BioAssay AID2060341 (Molecular Pharmacology Branch, DTP, NCI, 2025)
Values joined by “and” are separate entries in the source; they are usually repeats but may differ in a detail not shown here. Equal entries are not always repeated.

System: 327498-153-R-J2-PDC multicell spheroid viability
Assay: Anticancer human tumor 327498-153-R-J2-PDC patient-derived uterine carcinosarcoma cell line growth inhibition [IpAb]
Settings: for viability, T/C: stronger effect = lower value
From the text: Combinatorial screen of targeted agents with ipatasertib and abemaciclib in multi-cell type tumor spheroids
A high-throughput screen of multi-cell type tumor spheroids was designed to identify active combinations of targeted small molecules and ipatasertib or abemaciclib. Complex spheroids include a stromal component modeled by human endothelial cells (HUVEC) and fibroblasts modeled by human mesenchymal stem cells (MSCs). The concentration ranges selected for each drug and investigational agent were based upon clinically achievable concentrations if the clinical Cmax of the agent was known.
Compounds. The drugs and investigational agents: ipatasertib (NSC767898), abemaciclib(NSC768073), selumetinib (NSC741078), trametinib (758246), adavosertib (NSC754352), everolimus (NSC733504), sapanisertib (NSC764658), vemurafenib (NSC761431), venetoclax (NSC766270), copanlisib (NSC809693), apelisib (NSC765974), palbociblib (NSC758247), vemurafenib (NSC761431), dabrafenib (NSC764134), ravoxertinib (NSC781343), BMS-387032 (NSC767048), sotorasib (NSC818433), talazoparib (NSC767125) and afursertib (NSC778305), were obtained from the National Cancer Institute (NCI) Developmental Therapeutics Program Chemical Repository. The FDA-approved anticancer drug set is available from the NCI Developmental Therapeutics Program. […] The stock solutions were prepared in dimethyl sulfoxide (DMSO, Sigma-Aldrich, St. Louis, MO, cat. D2650) at 800-fold the tested concentration and stored at -70 degrees C prior to their use. All drugs and investigational agents were tested over a range starting from a high concentration at or near the clinical Cmax and decreasing in half-log increments. If the clinical Cmax for an agent had not been determined, the highest concentration tested was 10 microM.
NCI60 Cell Culture. NCI60 cell lines were obtained from the NCI Developmental Therapeutics Program Tumor Repository. For each lot of cells, the Repository performed Applied Biosystems AmpFLSTR Identifiler testing with PCR amplification to confirm consistency with the published Identifier STR profile for each cell line. Cells were kept in continuous culture for no more than 20 passages. The optimal seeding densities for each of the cell lines at each time point assessed were determined prior to performing the concentration response studies. Briefly, the NCI60 human tumor lines were grown as monolayers in RPMI 1640 medium supplemented with 10% FBS and 2 mmol/L L-glutamine.
An additional 9 lines were from the NCI60 cell line panel including MDA-MB-231 breast carcinoma, MDA-MB-468 breast carcinoma, MCF7 breast carcinoma, Hs578T breast carcinoma, MALME-3M melanoma, SK-MEL-2 melanoma, SK-OV-3 ovarian carcinoma, DU-145 prostate carcinoma, PC-3 prostate carcinoma, all cell lines along with major genetic alterations are listed on Table 2. Pooled donor human umbilical vein endothelial cells (HUVEC, Lonza, cat. CC-2519) and human mesenchymal stem cells (hMSC, Lonza, cat. PT-2501) were purchased from Lonza (Walkersville, MD).
PDMR cell lines were grown in complete medium (DC medium): Dulbecco's modified Eagle's medium (DMEM)/F12 supplemented with 5% fetal bovine serum (FBS), 2 mM L-glutamine, 100 U/mL penicillin and 100 µg/ml streptomycin, 0.4 µg/ml hydrocortisone, 10 ng/ml epidermal growth factor (EGF) recombinant human protein, 24 µg/mL adenine, and 0.1 mg/mL primocin. During culture from frozen stock vials, PDMR cells were cultured in the same medium containing 10 µM Y-27632 (see Table 3). The PDCs were cultured in complete DMEM/F12 media without 10 microM Y-27632 dihydrochloride for at least two passages prior to the screen. The pooled donor HUVEC and hMSC were cultured in endothelial cell growth medium 2 (PromoCell, Heidelberg, Germany, cat. C-22011) and mesenchymal stem cell growth medium 2 (PromoCell, cat. C-28009), respectively. For all experiments, HUVEC and hMSC were used at passages </=5.
[…]
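Also: spheroids exposed to agents for 7 days.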
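For viability, T/C in this document: 100% = DMSO vehicle control viability.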

## Cn1ncc(Cl)c1-c1cc(C(=O)NC(CN)Cc2cccc(F)c2)sc1Cl (configuration not stated)
Compound 0.0316 µM
  viability, T/C: 98.6% and 91.8%
Compound 0.1 µM
  viability, T/C: 85.3% and 76%
Compound 0.316 µM
  viability, T/C: 74.4% and 67.2%
Compound 1 µM
  viability, T/C: 53.1% and 49%
Compound 3.16 µM
  viability, T/C: 42.2% and 36.7%
Compound 10 µM
  viability, T/C: 0.31% and 0.21%
Curve of compound
  IC50: 1480 nM and 1100 nM

## CC(C)NCC(C(=O)N1CCN(c2ncnc3c2C(C)CC3O)CC1)c1ccc(Cl)cc1 (configuration not stated)
Compound 0.1 µM
  viability, T/C: 98.4% [middle of 13 runs]
Compound 0.316 µM
  viability, T/C: 80.2% [middle of 13 runs]
Compound 1 µM
  viability, T/C: 59.7% [middle of 13 runs]
Compound 3.16 µM
  viability, T/C: 48.1% [middle of 13 runs]
Compound 10 µM
  viability, T/C: 34.2% [middle of 13 runs]
Compound alone, run of 05/18/2021
  IC50: 2.46 µM [middle of 13 runs]

## COc1c(OCCCN2CCOCC2)ccc2c3n(c(=NC(=O)c4cnc(N)nc4)nc12)CCN3
Compound 0.00316 µM
  viability, T/C: 98.8% and 95%
Compound 0.01 µM
  viability, T/C: 87.7% and 86%
Compound 0.0316 µM
  viability, T/C: 70.7% and 76.3%
Compound 0.1 µM
  viability, T/C: 46.7% and 45.2%
Compound 0.316 µM
  viability, T/C: 25.3% and 23.2%
Compound 1 µM
  viability, T/C: 9.52% and 11.8%
Curve of compound
  IC50: 86.5 nM and 86.4 nM

## CC(C)n1nc(-c2ccc3oc(N)nc3c2)c2c(N)ncnc21
Compound 0.000316 µM
  viability, T/C: 103% and 88.9%
Compound 0.001 µM
  viability, T/C: 96.1% and 101%
Compound 0.00316 µM
  viability, T/C: 81.9% and 88%
Compound 0.01 µM
  viability, T/C: 54.3% and 52.7%
Compound 0.0316 µM
  viability, T/C: 31.7% and 27.2%
Compound 0.1 µM
  viability, T/C: 19.6% and 18.2%
Curve of compound
  IC50: 12.7 nM and 11.5 nM

## C=CC(=O)N1CCN(c2nc(=O)n(-c3c(C)ccnc3C(C)C)c3nc(-c4c(O)cccc4F)c(F)cc23)C(C)C1 (configuration not stated) + CCN1CCN(Cc2ccc(Nc3ncc(F)c(-c4cc(F)c5nc(C)n(C(C)C)c5c4)n3)nc2)CC1
Curve of first compound, second compound 0.01 µM
  IC50: 209 nM
Curve of first compound, second compound 0.0316 µM
  IC50: < 31.6 nM
Curve of first compound, second compound 0.1 µM
  IC50: < 31.6 nM
Curve of first compound, second compound 0.316 µM
  IC50: < 31.6 nM
Curve of first compound, second compound 1 µM
  IC50: < 31.6 nM
Second compound 0.01 µM, first compound 0.0316 µM
  viability, T/C: 63.7%
Second compound 0.01 µM, first compound 0.1 µM
  viability, T/C: 52.8%
Second compound 0.01 µM, first compound 0.316 µM
  viability, T/C: 49%
Second compound 0.01 µM, first compound 1 µM
  viability, T/C: 44.5%
Second compound 0.01 µM, first compound 3.16 µM
  viability, T/C: 43%
Second compound 0.01 µM, first compound 10 µM
  viability, T/C: 42.2%
Second compound 0.0316 µM, first compound 0.0316 µM
  viability, T/C: 50.3%
Second compound 0.0316 µM, first compound 0.1 µM
  viability, T/C: 42.7%
Second compound 0.0316 µM, first compound 0.316 µM
  viability, T/C: 40%
Second compound 0.0316 µM, first compound 1 µM
  viability, T/C: 41.5%
Second compound 0.0316 µM, first compound 3.16 µM
  viability, T/C: 38%
Second compound 0.0316 µM, first compound 10 µM
  viability, T/C: 38.4%
Second compound 0.1 µM, first compound 0.0316 µM
  viability, T/C: 42.5%
Second compound 0.1 µM, first compound 0.1 µM
  viability, T/C: 38.1%
Second compound 0.1 µM, first compound 0.316 µM
  viability, T/C: 36.9%
Second compound 0.1 µM, first compound 1 µM
  viability, T/C: 30.7%
Second compound 0.1 µM, first compound 3.16 µM
  viability, T/C: 38.6%
Second compound 0.1 µM, first compound 10 µM
  viability, T/C: 35.5%
Second compound 0.316 µM, first compound 0.0316 µM
  viability, T/C: 35.7%
Second compound 0.316 µM, first compound 0.1 µM
  viability, T/C: 33.2%
Second compound 0.316 µM, first compound 0.316 µM
  viability, T/C: 31.5%
Second compound 0.316 µM, first compound 1 µM
  viability, T/C: 32.8%
Second compound 0.316 µM, first compound 3.16 µM
  viability, T/C: 36.5%
Second compound 0.316 µM, first compound 10 µM
  viability, T/C: 36.8%
Second compound 1 µM, first compound 0.0316 µM
  viability, T/C: 37%
Second compound 1 µM, first compound 0.1 µM
  viability, T/C: 36.5%
Second compound 1 µM, first compound 0.316 µM
  viability, T/C: 29.1%
Second compound 1 µM, first compound 1 µM
  viability, T/C: 35.5%
Second compound 1 µM, first compound 3.16 µM
  viability, T/C: 38.1%
Second compound 1 µM, first compound 10 µM
  viability, T/C: 44.1%
